Measured values from patent US10555528B1, “Herbicidal composition and method for controlling weeds” (SUMITOMO CHEMICAL COMPANY, LIMITED, priority 2019, dated 2020).

What was measured:
corn plant = assay: Spot-on crop injury test on corn leaf; format: in vivo; conditions: corn at 2.5-leaf stage, 2 micro liter droplet spotted on 2nd leaf; glufosinate-ammonium 40,000 ng/plant, PPO inhibitor none or 20 ng/plant (weight ratio 1/2,000); visually estimated 3 days after treatment, % of total area of treated leaf
Source text: 3 days after the spot-on treatments, the injured area of the treated leaf was visually estimated as a percentage on the total area of the treated leaf.

soybean plant = assay: Spot-on crop injury test on soybean leaf; format: in vivo; conditions: soybean at 2 trifoliate leaf stage, 2 micro liter droplet spotted on 2nd trifoliate leaf; glufosinate-ammonium 400,000 ng/plant, PPO inhibitor none or 0.2 ng/plant (weight ratio 1/2,000,000); visually estimated 6 days after treatment, % of total area of treated leaf
Source text: One droplet having 2 micro liter of a commercial formulation of glufosinate-ammonium (manufactured by Bayer Cropscience KK under the trade name of Basta) having 200,000 ppm (200 g/L) of glufosinate-ammonium was spotted on the 2nd trifoliate leaf of a soybean plant at the stage of 2 trifoliate leaf.
6 days after the spot-on treatments, the injured area of the treated leaf was visually estimated as a percentage on the total area of the treated leaf.

CP(=O)(O)CCC(N)C(=O)O (centres unmarked) [Glufosinate-ammonium, glufosinate-ammonium]
Injured leaf area (corn plant): 60% | Injured leaf area (soybean plant): 70%
